# Activity calls are given as the source filed them. The rule behind the calls is not given here.
# Columns and labels:
# [1] = target: T1, Alpha-ketoglutarate-dependent dioxygenase alkB homolog 3 (Homo sapiens, UniProt Q96Q83); test: Inhibition of recombinant human AlkBH3 assessed as reduction in formaldehyde release using 40-mer single N3-meC as substrate incubated for 60 mins followed by substrate addition measured after 15 mins by fluorescence assay
# T1 sequence (Q96Q83 whole entry): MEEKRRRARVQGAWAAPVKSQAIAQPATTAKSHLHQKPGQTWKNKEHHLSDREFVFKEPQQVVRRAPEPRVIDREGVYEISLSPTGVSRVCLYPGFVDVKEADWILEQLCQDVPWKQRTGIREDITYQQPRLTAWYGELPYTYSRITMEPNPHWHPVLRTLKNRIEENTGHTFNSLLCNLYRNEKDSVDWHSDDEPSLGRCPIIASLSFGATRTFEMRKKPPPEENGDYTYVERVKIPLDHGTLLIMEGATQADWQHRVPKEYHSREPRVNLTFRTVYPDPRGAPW
# [2] = target: T2, Alpha-ketoglutarate-dependent dioxygenase alkB homolog 3 (Homo sapiens) (UniProt Q96Q83); test: Inhibition of recombinant human AlkBH3 assessed as reduction in formaldehyde release at 50 uM using 40-mer single N3-meC as substrate incubated for 60 mins followed by substrate addition measured after 15 mins by fluorescence assay
# T2 sequence (whole entry): T1 sequence (Q96Q83 whole entry)
# [3] = target: T2, Alpha-ketoglutarate-dependent dioxygenase alkB homolog 3 (Homo sapiens); test: Binding affinity to recombinant human AlkBH3 at 12 uM after 1 hr by far-UV circular dichroism spectroscopy
# A549 [4] = test: Cytotoxicity against human A549 cells assessed as decrease in cell viability at 1 uM after 12 to 60 mins by MTT assay; type: functional, cell-based
# [5] = target: T1, Alpha-ketoglutarate-dependent dioxygenase alkB homolog 3; test: Binding affinity to recombinant human AlkBH3 incubated for 2 mins by isothermal titration calorimetric method
# A549 [6] = test: Cytotoxicity against human A549 cells assessed as decrease in cell viability after 48 to 72 hrs by MTT assay; type: functional, cell-based
# [7] = target: T2, Alpha-ketoglutarate-dependent dioxygenase alkB homolog 3 (Homo sapiens); test: Competitive inhibition of recombinant human AlkBH3 assessed as reduction in formaldehyde release at 50 to 500 uM using 40-mer internal N3me-oligo-dC as substrate incubated for 60 mins followed by substrate addition measured after 15 mins by Lineweaver-Burk plot analysis
# [8] = target: T2, Alpha-ketoglutarate-dependent dioxygenase alkB homolog 3 (Homo sapiens); test: Inhibition of AlkBH3 in human A549 cells assessed as increase in MMS-induced cytotoxicity at 1 uM after 48 hrs by MTT assay; type: cell-based
# [9] = target: T2, Alpha-ketoglutarate-dependent dioxygenase alkB homolog 3 (Homo sapiens); test: Mixed type inhibition of recombinant human AlkBH3 assessed as reduction in formaldehyde release at 50 to 500 uM using varying levels of 2OG as substrate incubated for 60 mins followed by substrate addition measured after 15 mins by Lineweaver-Burk plot analysis
# [10] = target: T2, Alpha-ketoglutarate-dependent dioxygenase alkB homolog 3 (Homo sapiens); test: Binding affinity to recombinant human AlkBH3 at 12 uM after 1 hr by near-UV circular dichroism spectroscopy
# A549 [11] = test: Cytotoxicity against human A549 cells assessed as decrease in cell viability at 500 uM after 48 to 72 hrs by MTT assay; type: functional, cell-based
Structure (SMILES),IC50 [1] [µM],other results
COc1ccc(C2=C(c3ccc(OC)c(OC)c3)c3cc(C)ccc3C2=O)cc1OC,> 50,
COc1cccc(C2=C(c3cccc(OC)c3)c3cc(-c4ccccc4)ccc3C2=O)c1,> 50,
COc1ccc(C2=C(Br)C(=O)c3ccc(C)cc32)cc1OC,> 50,
COc1ccc(C2=C(Br)C(=O)c3ccc(C)cc32)cc1,43.2,
COc1ccc(C2=C(c3cc(OC)cc(OC)c3)C(=O)c3ccc(-c4ccccc4)cc32)cc1,> 50,
COc1ccc(C2=C(Cl)C(=O)c3ccc(-c4ccc(C)cc4)cc32)cc1,9.8,inhibition [2]: Active; Activity [3]: Active; Activity (A549 [4]): Active; Kd [5]: 7.81 µM; Activity (A549 [6]): Dose-dependent effect; IC50 (A549 [6]): 18 µM; inhibition [7]: Active; inhibition [8]: Active; inhibition [9]: Active; Activity [10]: Active
Cc1ccc2c(c1)C(c1ccc(Cl)c(Cl)c1)=C(c1ccc(Cl)c(Cl)c1)C2=O,32.3,inhibition [2]: Active
Cc1ccc2c(c1)C(c1cccc3ccccc13)=C(Br)C2=O,> 50,
COc1ccc(C2=C(c3ccc(OC)c(OC)c3)c3cc(-c4ccccc4)ccc3C2=O)cc1OC,> 50,
COc1ccc(C2=C(c3cc(OC)cc(OC)c3)C(=O)c3ccc(C)cc32)cc1,> 50,
COc1ccc(C2=C(c3ccc(OC)cc3)c3cc(C)ccc3C2=O)cc1,> 50,
COc1cc(OC)cc(C2=C(Br)C(=O)c3ccc(C)cc32)c1,> 50,
Cc1ccc(C2=C(c3ccc(C)cc3)c3cc(C)ccc3C2=O)cc1,> 50,
Cc1ccc2c(c1)C(c1ccccc1)=C(Br)C2=O,> 50,
Cc1ccc(C2=C(Br)C(=O)c3ccc(C)cc32)cc1,> 50,
COc1ccc(C2=C(Cl)C(=O)c3ccc(C)cc32)cc1,> 50,Activity (A549 [4]): inactive; inhibition [8]: inactive; Activity (A549 [11]): inactive
COc1ccc(C2=C(c3ccc(OC)cc3)c3cc(-c4ccccc4)ccc3C2=O)cc1,> 50,
COc1ccc(C2=C(c3cc(OC)cc(OC)c3)c3cc(C)ccc3C2=O)cc1,> 50,
COc1cccc(C2=C(c3cccc(OC)c3)c3cc(-c4ccc(C)cc4)ccc3C2=O)c1,13.1,inhibition [2]: Active
COc1ccc(C2=C(c3cc(OC)cc(OC)c3)C(=O)c3ccc(-c4ccc(C)cc4)cc32)cc1,> 50,
Cc1ccc2c(c1)C(c1ccccc1)=C(c1ccccc1)C2=O,> 50,
COc1cccc(C2=C(c3cccc(OC)c3)c3cc(C)ccc3C2=O)c1,> 50,
COc1ccc(C2=C(c3ccc(OC)c(OC)c3)c3cc(-c4ccc(C)cc4)ccc3C2=O)cc1OC,> 50,
O=C1C(c2ccccc2)=C(c2ccccc2)c2cc(-c3ccccc3)ccc21,> 50,
COc1ccc(C2=C(Cl)C(=O)c3ccc(-c4ccccc4)cc32)cc1,> 50,Activity (A549 [4]): inactive; IC50 (A549 [6]): 370 µM; inhibition [8]: inactive

# — ChEMBL document CHEMBL4229474, “Indenone derivatives as inhibitor of human DNA dealkylation repair enzyme AlkBH3” (Bioorg Med Chem, 2018)
